In ChEMBL document CHEMBL4418911, “Methods to identify modulators” (2012):
Activity calls are given as the source filed them. The rule behind the calls is not given here.

Tests used:
[1] = target: T1, Taste receptor type 2 member 16 (Homo sapiens) (UniProt Q9NYV7); assay: (§1) Activation of full-length human TAS2R16 expressed in HEK293T/Galpha16-gustducin 44 cells assessed as effect on calcium flux by measuring deltaF/F0 ratio at 0.1563 mM in presence of (E)-4-(2,2,3-trimethylcyclopent-3-enyl)but-2-enoic acid by Fluo-4 dye based FLIPR assay; assay type: functional, cell-based
T1 sequence (whole entry): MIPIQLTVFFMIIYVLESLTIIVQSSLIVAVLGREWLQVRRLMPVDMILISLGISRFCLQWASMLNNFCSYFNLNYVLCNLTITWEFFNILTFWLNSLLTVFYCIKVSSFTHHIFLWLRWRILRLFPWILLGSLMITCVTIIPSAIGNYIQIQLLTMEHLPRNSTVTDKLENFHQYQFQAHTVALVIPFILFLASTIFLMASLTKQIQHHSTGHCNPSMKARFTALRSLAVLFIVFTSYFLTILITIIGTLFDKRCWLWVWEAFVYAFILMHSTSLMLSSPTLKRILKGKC

[2] = target: T1, Taste receptor type 2 member 16 (Homo sapiens); assay: Activation of full-length human TAS2R16 expressed in HEK293T/Galpha16-gustducin 44 cells assessed as effect on calcium flux by measuring deltaF/F0 ratio at 0.625 mM in presence of (E)-4-(2,2,3-trimethylcyclopent-3-enyl)but-2-enoic acid by Fluo-4 dye based FLIPR assay; assay type: functional, cell-based
[3] = target: T1, Taste receptor type 2 member 16 (Homo sapiens); assay: Activation of full-length human TAS2R16 expressed in HEK293T/Galpha16-gustducin 44 cells assessed as effect on calcium flux by measuring deltaF/F0 ratio at 10 mM in presence of (E)-4-(2,2,3-trimethylcyclopent-3-enyl)but-2-enoic acid by Fluo-4 dye based FLIPR assay; assay type: functional, cell-based
[4] = target: T1, Taste receptor type 2 member 16 (Homo sapiens); assay: Activation of full-length human TAS2R16 expressed in HEK293T/Galpha16-gustducin 44 cells assessed as effect on calcium flux by measuring deltaF/F0 ratio in presence of 4-(2,2,3-trimethylcyclo-pentyl)butanamide) by Fluo-4 dye based FLIPR assay; assay type: functional, cell-based
[5] = target: T1, Taste receptor type 2 member 16 (Homo sapiens); assay: Activation of full-length human TAS2R16 expressed in HEK293T/Galpha16-gustducin 44 cells assessed as effect on calcium flux by measuring deltaF/F0 ratio at 2.5 mM in presence of (E)-4-(2,2,3-trimethylcyclopent-3-enyl)but-2-enoic acid by Fluo-4 dye based FLIPR assay; assay type: functional, cell-based
[6] = target: T1, Taste receptor type 2 member 16 (Homo sapiens); assay: Activation of full-length human TAS2R16 expressed in HEK293T/Galpha16-gustducin 44 cells assessed as effect on calcium flux by measuring deltaF/F0 ratio at 5 mM in presence of (E)-4-(2,2,3-trimethylcyclopent-3-enyl)but-2-enoic acid by Fluo-4 dye based FLIPR assay; assay type: functional, cell-based
[7] = target: T1, Taste receptor type 2 member 16 (Homo sapiens); assay: Activation of full-length human TAS2R16 expressed in HEK293T/Galpha16-gustducin 44 cells assessed as effect on calcium flux by measuring deltaF/F0 ratio at 0.0391 mM in presence of (E)-4-(2,2,3-trimethylcyclopent-3-enyl)but-2-enoic acid by Fluo-4 dye based FLIPR assay; assay type: functional, cell-based
[8] = target: T1, Taste receptor type 2 member 16 (Homo sapiens); assay: Activation of full-length human TAS2R16 expressed in HEK293T/Galpha16-gustducin 44 cells assessed as effect on calcium flux by measuring deltaF/F0 ratio at 0.3125 mM in presence of (E)-4-(2,2,3-trimethylcyclopent-3-enyl)but-2-enoic acid by Fluo-4 dye based FLIPR assay; assay type: functional, cell-based
[9] = target: T1, Taste receptor type 2 member 16 (Homo sapiens); assay: Activation of full-length human TAS2R16 expressed in HEK293T/Galpha16-gustducin 44 cells assessed as effect on calcium flux by measuring deltaF/F0 ratio at 0.0781 mM in presence of (E)-4-(2,2,3-trimethylcyclopent-3-enyl)but-2-enoic acid by Fluo-4 dye based FLIPR assay; assay type: functional, cell-based
Homo sapiens [10] = species: Homo sapiens; assay: Induction of bitter sensitivity in bitter sensitive human panelists tasting solution containing 3 mM compound in absence of 13 ppm (E)-4-(2,2,3-trimethylcyclopent-3-enyl)but-2-enoic acid; assay type: functional, organism-based
[11] = target: T2, Taste receptor type 2 member 31 (Homo sapiens) (UniProt P59538); assay: Agonist activity at full-length human TAS2R44 expressed in HEK293T/Galpha16-gustducin 44 cells assessed as effect on calcium flux by measuring deltaF/F0 ratio in presence of 4-(2,2,3-trimethylcyclo-pentyl)butanamide) by Fluo-4 dye based FLIPR assay; assay type: functional, cell-based
T2 sequence (whole entry): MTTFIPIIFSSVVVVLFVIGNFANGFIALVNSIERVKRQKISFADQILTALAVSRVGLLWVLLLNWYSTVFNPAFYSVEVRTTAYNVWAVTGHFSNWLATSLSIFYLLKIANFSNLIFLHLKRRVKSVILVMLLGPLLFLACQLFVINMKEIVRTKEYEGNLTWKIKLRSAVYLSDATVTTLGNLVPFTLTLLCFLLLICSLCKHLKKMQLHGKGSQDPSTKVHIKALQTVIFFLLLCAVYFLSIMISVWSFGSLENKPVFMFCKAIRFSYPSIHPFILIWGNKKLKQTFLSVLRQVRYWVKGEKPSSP

[12] = target: T2, Taste receptor type 2 member 31 (Homo sapiens); assay: as §1, with “TAS2R44” for “TAS2R16”, “12.5” for “0.1563”, “assay (reference value: 0.051 +/- 0.004)” for “assay”; assay type: functional, cell-based
[13] = target: T2, Taste receptor type 2 member 31 (Homo sapiens); assay: (§2) Activation of full-length human TAS2R44 expressed in HEK293T/Galpha16-gustducin 44 cells assessed as effect on calcium flux by measuring deltaF/F0 ratio at 50 mM in presence of (E)-4-(2,2,3-trimethylcyclopent-3-enyl)but-2-enoic acid by Fluo-4 dye based FLIPR assay (reference value: 0.192 +/- 0.011); assay type: functional, cell-based
[14] = target: T3, Taste receptor type 2 member 10 (Homo sapiens) (UniProt Q9NYW0); assay: Activation of full-length human TAS2R10 expressed in HEK293T/Galpha16-gustducin 44 cells assessed as effect on calcium flux by measuring deltaF/F0 ratio by Fluo-4 dye based FLIPR assay; assay type: functional, cell-based
T3 sequence (whole entry): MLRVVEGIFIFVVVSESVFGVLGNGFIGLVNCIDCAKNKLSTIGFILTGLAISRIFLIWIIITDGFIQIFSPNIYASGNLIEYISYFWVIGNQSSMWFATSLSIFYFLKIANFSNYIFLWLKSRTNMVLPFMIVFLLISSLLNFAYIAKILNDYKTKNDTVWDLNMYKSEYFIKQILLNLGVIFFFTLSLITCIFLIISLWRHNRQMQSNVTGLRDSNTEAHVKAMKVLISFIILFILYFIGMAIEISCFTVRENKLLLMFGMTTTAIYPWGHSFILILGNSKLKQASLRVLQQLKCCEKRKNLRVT

[15] = target: T2, Taste receptor type 2 member 31 (Homo sapiens); assay: as §2, with “6.25” for “50”, “0.027” for “0.192”, “0.029)” for “0.011)”; assay type: functional, cell-based
[16] = target: T2, Taste receptor type 2 member 31 (Homo sapiens); assay: Activation of full-length human TAS2R44 expressed in HEK293T/Galpha16-gustducin 44 cells assessed as effect on calcium flux by measuring deltaF/F0 ratio at 25 mM in presence of (E)-4-(2,2,3-trimethylcyclopent-3-enyl)but-2-enoic acid by Fluo-4 dye based FLIPR assay (reference value: 0.110 +/- 0.019); assay type: functional, cell-based
[17] = target: T2, Taste receptor type 2 member 31 (Homo sapiens); assay: as §2, with “3.125” for “50”, “0.030” for “0.192”, “0.042)” for “0.011)”; assay type: functional, cell-based
[18] = target: T4, Taste receptor type 2 member 31 (Homo sapiens, UniProt P59538); assay: Agonist activity at full-length human TAS2R44 expressed in HEK293T/Galpha16-gustducin 44 cells assessed as effect on calcium flux by measuring deltaF/F0 ratio in presence of (E)-4-(2,2,3-trimethylcyclopent-3-enyl)but-2-enoic acid by Fluo-4 dye based FLIPR assay; assay type: functional, cell-based
T4 sequence (P59538 whole entry): T2 sequence (whole entry)

[19] = target: T5, Taste receptor type 2 member 1 (Homo sapiens) (UniProt Q9NYW7); assay: Activation of full-length human TAS2R1 expressed in HEK293T/Galpha16-gustducin 44 cells assessed as effect on calcium flux by measuring deltaF/F0 ratio by Fluo-4 dye based FLIPR assay; assay type: functional, cell-based
T5 sequence (whole entry): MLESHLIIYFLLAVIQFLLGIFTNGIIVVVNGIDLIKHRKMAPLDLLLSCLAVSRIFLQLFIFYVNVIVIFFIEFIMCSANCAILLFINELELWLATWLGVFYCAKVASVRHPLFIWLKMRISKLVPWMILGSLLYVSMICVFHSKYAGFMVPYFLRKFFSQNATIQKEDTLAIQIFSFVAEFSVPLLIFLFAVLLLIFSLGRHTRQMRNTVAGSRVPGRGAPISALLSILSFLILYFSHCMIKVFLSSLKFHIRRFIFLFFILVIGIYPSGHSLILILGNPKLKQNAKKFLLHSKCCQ

[20] = target: T2, Taste receptor type 2 member 31 (Homo sapiens); assay: as §2, with “0.3906” for “50”, “0.046” for “0.192”, “0.048)” for “0.011)”; assay type: functional, cell-based
HEK-293T = assay: Effect on calcium flux in HEK293T/Galpha16-gustducin 44 cells assessed as deltaF/F0 ratio at 100 mM in presence of (E)-4-(2,2,3-trimethylcyclopent-3-enyl)but-2-enoic acid, by Fluo-4 dye based FLIPR assay; assay type: functional, Homo sapiens
Homo sapiens [21] = species: Homo sapiens; assay: Induction of bitter sensitivity in bitter sensitive human panelists tasting solution containing 3 mM compound in presence of 13 ppm (E)-4-(2,2,3-trimethylcyclopent-3-enyl)but-2-enoic acid; assay type: functional, organism-based
[22] = target: T2, Taste receptor type 2 member 31 (Homo sapiens); assay: as §2, with “0.7813” for “50”, “0.038” for “0.192”, “0.042)” for “0.011)”; assay type: functional, cell-based
[23] = target: T6, Taste receptor type 2 member 46 (Homo sapiens) (UniProt P59540); assay: Activation of full-length human TAS2R46 expressed in HEK293T/Galpha16-gustducin 44 cells assessed as effect on calcium flux by measuring deltaF/F0 ratio by Fluo-4 dye based FLIPR assay; assay type: functional, cell-based
T6 sequence (whole entry): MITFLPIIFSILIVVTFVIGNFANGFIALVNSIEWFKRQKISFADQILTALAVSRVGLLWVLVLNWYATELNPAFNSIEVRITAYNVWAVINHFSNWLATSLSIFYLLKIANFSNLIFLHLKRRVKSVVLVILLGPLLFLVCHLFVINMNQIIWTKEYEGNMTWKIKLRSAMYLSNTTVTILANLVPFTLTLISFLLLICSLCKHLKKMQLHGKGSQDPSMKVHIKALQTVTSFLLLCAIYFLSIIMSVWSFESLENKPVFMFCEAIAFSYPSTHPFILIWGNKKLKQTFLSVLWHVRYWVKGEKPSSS

OC[C@H]1O[C@@H](Oc2ccccc2)[C@H](O)[C@@H](O)[C@@H]1O
Ratio [1]: 0.702
Ratio [2]: 2.14
Ratio [3]: 2.83
Activity [4]: Active
Ratio [5]: 2.48
Ratio [6]: 2.65
Ratio [7]: -0.013
Ratio [8]: 1.55
Ratio [9]: 0.108

OC[C@H]1O[C@H](O[C@]2(CCl)O[C@H](CCl)[C@@H](O)[C@@H]2O)[C@H](O)[C@@H](O)[C@H]1Cl [SUCRALOSE]
Activity (Homo sapiens [10]): Active
Activity [11]: Active
Ratio [12]: -0.015
Ratio [13]: -0.025
Activity [14]: Dose-dependent effect
Ratio [15]: 0
Ratio [16]: -0.035
Ratio [17]: 0.005
EC50 [18]: Not Active
Activity [19]: Dose-dependent effect
Ratio [20]: 0.011
Ratio (HEK-293T): -0.175
Activity (Homo sapiens [21]): inactive
Ratio [22]: 0.01
Activity [23]: Dose-dependent effect
